Experimental data from patent US9981916B2 (Genentech, Inc., priority 2013, dated 2018).

Biological target: T1, RORc ligand binding domain (Homo sapiens, UniProt P51449)
T1 construct: host or cells: E. coli
T1 sequence (P51449 269-508 limits assumed): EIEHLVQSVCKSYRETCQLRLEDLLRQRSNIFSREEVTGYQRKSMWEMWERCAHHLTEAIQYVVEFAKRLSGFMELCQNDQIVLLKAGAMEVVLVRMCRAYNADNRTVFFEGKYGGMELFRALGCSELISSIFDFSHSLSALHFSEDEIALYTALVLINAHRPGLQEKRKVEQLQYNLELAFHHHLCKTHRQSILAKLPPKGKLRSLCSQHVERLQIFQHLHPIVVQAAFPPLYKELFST
Assay: In vitro RORc ligand binding assay (25-[3H]hydroxycholesterol displacement, filter binding)
Conditions: 6 nM 25-[3H]hydroxycholesterol, 0.6 ug/mL RORc receptor, 3 h at 25° C.
Procedure: Example 17: In Vitro RORc Ligand Binding Assay
This assay was used to determine a compound's potency in inhibiting activity of RORc by determining, Kiapp, IC50, or percent inhibition values.
On day of the assay, 100 uL of 0.05% CHAPS (in deionized H2O) was added to all wells of the GFB Unifilter plate and allowed soak for 1 h. A wash buffer of 50 mM HEPES (pH 7.4), 150 mM NaCl, and 5 mM MgCl2 was prepared to wash the filter plate. To prepare an assay buffer, BSA was added to the wash buffer to reach 0.01% and DTT was added to reach 1 mM.
For IC50 mode, 10 mM compound stocks were serially diluted in DMSO with DMSO to give 20× required final concentration in DMSO (15 uL compound+30 uL DMSO). The 20× compound stocks were diluted in DMSO with Assay Buffer 4-fold to reach 5× the final test concentration in 25% DMSO (10 uL compound+30 uL Assay Buffer). Solutions were mixed by aspiration several times with a pipette set on 50 uL volume. For the assay, 10 uL of 5× compound stock solutions in 25% DMSO were added to the assay plate in duplicate.
For two point screening, 10 mM stock compound solutions were diluted in DMSO to obtain 200 uM (20× the high test concentration) and then diluted 10-fold further to reach 20 uM (20× the low test concentration). The 20× stocks were diluted 4-fold with Assay Buffer (10 uL compound+30 uL Assay Buffer) to reach 5× the test concentrations (50 uM and 5 uM) and 10 uL were added to two assay plates for the duplicate wells. With each concentration tested on 2 plates, each set of 80 compounds used 4 assay plates (1 uM and 10 uM, with n=2).
25-hydroxycholesterol (1 uM) was used to determine the level of NSB signal is prepared in DMSO as for compounds above, then diluted in Assay Buffer to give a final concentration of 5 uM. For 25-hydroxycholesterol in 25% DMSO/75% Assay Buffer; 10 uL per well was used for NSB samples. Wells for Total Binding and No Receptor sample determination contained 10 uL of 25% DMSO/75% Assay Buffer per well.
25-[^3H]hydroxycholesterol was diluted in Assay Buffer to obtain 15 nM and vortex to mix. Add 20 uL to all wells to reach 6 nM final concentration in the assay.
Stock receptor solution was diluted in assay buffer to obtain 1.5 ug/mL in Assay Buffer. 20 uL was added to all wells. For No Receptor samples, 20 uL Assay Buffer was substituted for receptor solution.
Assay plates were 96-well polypropylene V-bottom plates. 10 uL of 5× compound in 25% DMSO/75% Assay Buffer was added to Test wells. 10 uL of 25% DMSO/75% Assay Buffer was added to Total Binding or No Receptor wells. 10 uL of 5 uM 25-hydroxycholesterol in 25% DMSO/75% Assay Buffer was added to NSB wells. 20 uL of 15 nM 25-[^3H]hydroxycholesterol prepared in Assay Buffer was added to all wells. 20 uL of 1.5 ug/mL RORc receptor was added to wells (or […] Assay Buffer to No R wells). Following addition to the wells, the plates were incubated 3 h at 25° C.
Using a Packard Filtermate Harvester, the filter plate were washed 4 times following transfer of the incubated samples. Plates were dry-filtered completely (2 h at 50° C. or overnight at room temperature). 50 uL Microscint 0 was added to all wells and read on Topcount protocol Inverted.
Final concentrations were as follows: 50 mM HEPES buffer (pH 7.4); 150 mM NaCl; 1 mM DTT; 5 mM MgCl2; 0.01% BSA; 5% DMSO; 0.6 ug/mL RORc receptor; 6 nM 25-[^3H]hydroxycholesterol. For NSB wells, 1 uM 25-hydroxycholesterol was also present.

Row | IC50 [nM] | Compound
1 | 3250 | CC1(C)[C@H]2CC[C@]1(C(=O)N1CC(OCc3ccccc3)C1)c1nnc(-c3c(F)cccc3F)cc12 [Example 198, (3-(benzyloxy)azetidin-1-yl)((5R,8R)-3-(2,6-difluorophenyl)-9,9-dimethyl-5,6,7,8-tetrahydro-5,8-methanocinnolin-8-yl)methanone]
2 | 19 | Cc1nnc(N(C[C@@]23CC[C@@H](c4cc(-c5c(F)cccc5F)nnc42)C3(C)C)C(C)C)o1 [Example 152, N-(((5R,8S)-3-(2,6-difluorophenyl)-9,9-dimethyl-5,6,7,8-tetrahydro-5,8-methanocinnolin-8-yl)methyl)-N-isopropyl-5-methyl-1,3,4-oxadiazol-2-amine]
3 | 126 | CC1(C)[C@@H]2CC[C@@]1(C(=O)N1CCC(C#N)C1)c1nnc(-c3c(F)cccc3F)cc12 (stereo partly drawn) [Example 245, 1-((5S,8S)-3-(2,6-difluorophenyl)-9,9-dimethyl-5,6,7,8-tetrahydro-5,8-methanocinnoline-8-carbonyl)pyrrolidine-3-carbonitrile]
4 | 856 | CC1(C)[C@H]2CC[C@]1(CN1CCCS1(=O)=O)c1nnc(-c3c(F)cccc3F)cc12 [Example 284, 2-(((5R,8S)-3-(2,6-difluorophenyl)-9,9-dimethyl-5,6,7,8-tetrahydro-5,8-methanocinnolin-8-yl)methyl)isothiazolidine 1,1-dioxide]
5 | 1130 | CN(CCC#N)C(=O)[C@]12CC[C@H](c3cc(-c4c(F)cccc4F)nnc31)C2(C)C [Example 258, (5S,8S)-N-(2-cyanoethyl)-3-(2,6-difluorophenyl)-N,9,9-trimethyl-5,6,7,8-tetrahydro-5,8-methanocinnoline-8-carboxamide]
6 | 3410 | Cc1nnc(N(CCN(C)C)C[C@@]23CC[C@@H](c4cc(-c5c(F)cccc5F)nnc42)C3(C)C)o1 [Example 260, N1-(((5R,8S)-3-(2,6-difluorophenyl)-9,9-dimethyl-5,6,7,8-tetrahydro-5,8-methanocinnolin-8-yl)methyl)-N2,N2-dimethyl-N1-(5-methyl-1,3,4-oxadiazol-2-yl)ethane-1,2-diamine]
7 | 9 | Cc1nnc(N(CC(F)F)C[C@@]23CC[C@@H](c4cc(-c5c(F)cccc5F)nnc42)C3(C)C)o1 [Example 166, N-(2,2-difluoroethyl)-N-(((5R,8S)-3-(2,6-difluorophenyl)-9,9-dimethyl-5,6,7,8-tetrahydro-5,8-methanocinnolin-8-yl)methyl)-5-methyl-1,3,4-oxadiazol-2-amine]
8 | 123 | Cc1cc([C@@]23CC[C@@H](c4cc(-c5c(F)cccc5F)nnc42)C3(C)C)[nH]n1 [Example 191, (5R,8S)-3-(2,6-difluorophenyl)-9,9-dimethyl-8-(3-methyl-1H-pyrazol-5-yl)-5,6,7,8-tetrahydro-5,8-methanocinnoline]
9 | 215 | CN(C(=O)[C@]12CC[C@H](c3cc(-c4c(F)cccc4F)nnc31)C2(C)C)C1CCC1 [Example 70, (5S,8S)-N-cyclobutyl-3-(2,6-difluorophenyl)-N,9,9-trimethyl-6,7-dihydro-5,8-methanocinnoline-8(5H)-carboxamide]
10 | 5190 | CN(C)CC(=O)N[C@@]12CC[C@@H](c3cc(-c4ccccc4F)nnc31)C2(C)C [Example 89, N-[(5R,8R)-3-(2-fluorophenyl)-9,9-dimethyl-6,7-dihydro-5,8-methanocinnolin-8(5H)-yl]-N~2~,N~2~- dimethylglycinamide]
11 | 50 | CC1(C)[C@H]2CC[C@]1(c1ccno1)c1nnc(-c3c(F)cccc3F)cc12 [Example 194, 5-((5R,8R)-3-(2,6-difluorophenyl)-9,9-dimethyl-5,6,7,8-tetrahydro-5,8-methanocinnolin-8-yl)isoxazole]
12 | 2940 | C[C@H]1CN(C(=O)[C@]23CC[C@H](c4cc(-c5c(F)cccc5F)nnc42)C3(C)C)C[C@@H]1O [Example 220, ((5S,8S)-3-(2,6-difluorophenyl)-9,9-dimethyl-5,6,7,8-tetrahydro-5,8-methanocinnolin-8-yl)((3R,4S)-3-hydroxy-4-methylpyrrolidin-1-yl)methanone]
13 | 23 | CC1(C)[C@@H]2CC[C@@]1(C(=O)N1CCCC1)c1nnc(-c3c(F)cccc3F)cc12 [Example 69, [(5S,8S)-3-(2,6-difluorophenyl)-9,9-dimethyl-6,7-dihydro-5,8-methanocinnolin-8(5H)-yl](pyrrolidin-1-yl)methanone]
14 | 8 | CC1(C)[C@H]2CC[C@]1(C(=O)N1CC3CC3C1)c1nnc(-c3c(F)cccc3F)cc12 (stereo partly drawn) [Example 147, 3-azabicyclo[3.1.0]hexan-3-yl((5R,8R)-3-(2,6-difluorophenyl)-9,9-dimethyl-5,6,7,8-tetrahydro-5,8-methanocinnolin-8-yl)methanone]
15 | 1790 | CC1(C)[C@@H]2CC[C@@]1(C(=O)Nc1ccccc1S(C)(=O)=O)c1nnc(-c3ccccc3F)cc12 [Example 129, (5S,8S)-3-(2-fluorophenyl)-9,9-dimethyl-N-(2-(methylsulfonyl)phenyl)-5,6,7,8-tetrahydro-5,8-methanocinnoline-8-carboxamide]
16 | 466 | CC1(C)[C@H]2CC[C@]1(c1ccnn1CCC#N)c1nnc(-c3c(F)cccc3F)cc12 [Example 276, 3-(5-((5R,8S)-3-(2,6-difluorophenyl)-9,9-dimethyl-5,6,7,8-tetrahydro-5,8-methanocinnolin-8-yl)-1H-pyrazol-1-yl)propanenitrile]
17 | 600 | CC1(C)[C@H]2CC[C@]1(C)c1nnc(Oc3ccccc3F)cc12 [Example 98, (5R,8S)-3-(2-fluorophenoxy)-8,9,9-trimethyl-5,6,7,8-tetrahydro-5,8-methanocinnoline]
18 | 176 | COCC(=O)N(CCC#N)C[C@@]12CC[C@@H](c3cc(-c4c(F)cccc4F)nnc31)C2(C)C [Example 311, N-(2-cyanoethyl)-N-(((5R,8S)-3-(2,6-difluorophenyl)-9,9-dimethyl-5,6,7,8-tetrahydro-5,8-methanocinnolin-8-yl)methyl)-2-methoxyacetamide]
19 | 121 | CC(=O)OCCN(C[C@@]12CC[C@@H](c3cc(-c4c(F)cccc4F)nnc31)C2(C)C)C(C)=O [Example 290, 2-(N-(((5R,8S)-3-(2,6-difluorophenyl)-9,9-dimethyl-5,6,7,8-tetrahydro-5,8-methanocinnolin-8-yl)methyl)acetamido)ethyl acetate]
20 | 2720 | CC(=O)N[C@H]1CCN(C(=O)[C@]23CC[C@H](c4cc(-c5c(F)cccc5F)nnc42)C3(C)C)C1 [Example 225, N-((S)-1-((5S,8S)-3-(2,6-difluorophenyl)-9,9-dimethyl-5,6,7,8-tetrahydro-5,8-methanocinnoline-8-carbonyl)pyrrolidin-3-yl)acetamide]
21 | 5480 | Cn1cc(-c2cc3c(nn2)[C@@]2(C)CC[C@@H]3C2(C)C)cn1 [Example 96, (5R,8S)-8,9,9-trimethyl-3-(1-methyl-1H-pyrazol-4-yl)-5,6,7,8-tetrahydro-5,8-methanocinnoline]
22 | 904 | CNC(=O)C1CCN(C(=O)[C@]23CC[C@H](c4cc(-c5c(F)cccc5F)nnc42)C3(C)C)C1 (stereo partly drawn) [Example 244, 1-((5S,8S)-3-(2,6-difluorophenyl)-9,9-dimethyl-5,6,7,8-tetrahydro-5,8-methanocinnoline-8-carbonyl)-N-methylpyrrolidine-3-carboxamide]
